From patent US10669242B2 (priority 2016, dated 2020)

Target: T1, recombinant glucosyltransferase domain of C. difficile Toxin B/TcdB (Clostridioides difficile, UniProt P18177)
T1 construct: 6-His (C); purchased R&D Systems 6246-GT
Test: biochemical
Conditions: not given

T1 sequence (P18177 1-543): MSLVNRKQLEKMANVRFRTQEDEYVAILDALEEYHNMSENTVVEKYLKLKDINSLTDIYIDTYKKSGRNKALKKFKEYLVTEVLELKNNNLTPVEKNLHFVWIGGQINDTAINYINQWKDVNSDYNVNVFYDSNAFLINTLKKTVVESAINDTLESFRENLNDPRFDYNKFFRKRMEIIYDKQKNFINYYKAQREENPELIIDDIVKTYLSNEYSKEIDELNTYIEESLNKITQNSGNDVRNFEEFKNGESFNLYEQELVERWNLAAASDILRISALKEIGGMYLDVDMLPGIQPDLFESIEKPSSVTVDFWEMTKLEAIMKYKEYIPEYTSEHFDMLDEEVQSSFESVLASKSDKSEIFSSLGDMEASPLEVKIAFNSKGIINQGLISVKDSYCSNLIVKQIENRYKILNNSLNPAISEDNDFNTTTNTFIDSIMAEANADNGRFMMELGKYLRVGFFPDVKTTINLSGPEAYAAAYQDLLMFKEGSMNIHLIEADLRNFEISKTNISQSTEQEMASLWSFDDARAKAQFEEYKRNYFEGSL

Row | Compound | IC50 [nM]
1 | O=C(Nc1ccccn1)c1ccc(CN2C(=O)c3ccc(Cl)cc3NC(=O)[C@H]2Cc2ccccn2)s1 [Example 4bq, (R)-5-((8-chloro-2,5-dioxo-3-(pyridin-2-ylmethyl)-2,3-dihydro-1H-benzo[e][1,4]diazepin-4(5H)-yl)methyl)-N-(pyridin-2-yl)thiophene-2-carboxamide] | 100 to 999
2 | COc1ccc(NC(=O)c2ccc(CN3C(=O)c4ccc(Cl)cc4NC(=O)[C@H]3Cc3ccccn3)s2)nc1 [Example 4br, (R)-5-((8-chloro-2,5-dioxo-3-(pyridin-2-ylmethyl)-2,3-dihydro-1H-benzo[e][1,4]diazepin-4(5H)-yl)methyl)-N-(5-methoxypyridin-2-yl)thiophene-2-carboxamide] | 100 to 999
3 | Cc1ccc(NC(=O)c2ccc(CN3C(=O)c4ccc(Cl)cc4NC(=O)[C@H]3Cc3ccccn3)s2)nc1 [Example 4bs, (R)-5-((8-chloro-2,5-dioxo-3-(pyridin-2-ylmethyl)-2,3-dihydro-1H-benzo[e][1,4]diazepin-4(5H)-yl)methyl)-N-(5-methylpyridin-2-yl)thiophene-2-carboxamide] | 100 to 999
4 | O=C(Nc1ccc(C(F)(F)F)cn1)c1ccc(CN2C(=O)c3ccc(Cl)cc3NC(=O)[C@H]2Cc2ccccn2)s1 [Example 4bt, (R)-5-((8-chloro-2,5-dioxo-3-(pyridin-2-ylmethyl)-2,3-dihydro-1H-benzo[e][1,4]diazepin-4(5H)-yl)methyl)-N-(5-(trifluoromethyl)pyridin-2-yl)thiophene-2-carboxamide] | 1000 to 10000
5 | O=C(Nc1ccccn1)c1ccc(CN2C(=O)c3ccc(Cl)cc3NC(=O)C2Cc2cnccn2)cc1 (stereo not drawn) [Example 4bu, 4-((8-chloro-2,5-dioxo-3-(pyrazin-2-ylmethyl)-2,3-dihydro-1H-benzo[e][1,4]diazepin-4(5H)-yl)methyl)-N-(pyridin-2-yl)benzamide] | < 100
6 | CC(=NO)NC(=O)c1ccc(CN2C(=O)c3ccc(Cl)cc3NC(=O)[C@H]2Cc2cccnc2)cc1 [Example 4bv, (R)-4-((8-chloro-2,5-dioxo-3-(pyridin-3-ylmethyl)-2,3-dihydro-1H-benzo[e][1,4]diazepin-4(5H)-yl)methyl)-N-(1-(hydroxyimino)ethyl)benzamide] | 100 to 999
7 | Cc1cnc(NC(=O)c2ccc(CN3C(=O)c4ccc(Cl)cc4NC(=O)[C@H]3Cc3ccccn3)cc2)s1 [Example 4bw, (R)-4-((8-chloro-2,5-dioxo-3-(pyridin-2-ylmethyl)-2,3-dihydro-1H-benzo[e][1,4]diazepin-4(5H)-yl)methyl)-N-(5-methylthiazol-2-yl)benzamide] | < 100
8 | Cc1ccc(NC(=O)[C@H]2CC[C@H](CN3C(=O)c4ccc(Cl)cc4NC(=O)[C@H]3Cc3ccccn3)CC2)nc1 [Example 4bx, (1R,4r)-4-(((R)-8-chloro-2,5-dioxo-3-(pyridin-2-ylmethyl)-2,3-dihydro-1H-benzo[e][1,4]diazepin-4(5H)-yl)methyl)-N-(5-methylpyridin-2-yl)cyclohexanecarboxamide] | < 100
9 | O=C(Nc1nccs1)c1ccc(CN2C(=O)c3ccc(Cl)cc3NC(=O)[C@H]2Cc2cccnc2)cc1 [Example 4c, (R)-4-((8-chloro-2,5-dioxo-3-(pyridin-3-ylmethyl)-2,3-dihydro-1H-benzo[e][1,4]diazepin-4(5H)-yl)methyl)-N-(thiazol-2-yl)benzamide] | < 100
10 | O=C1Nc2cc(Cl)ccc2C(=O)N(C[C@H]2CC[C@H](C(=O)Nc3ccc(F)cn3)CC2)[C@@H]1Cc1ccccn1 [Example 4ca, (1R,4r)-4-(((R)-8-chloro-2,5-dioxo-3-(pyridin-2-ylmethyl)-2,3-dihydro-1H-benzo[e][1,4]diazepin-4(5H)-yl)methyl)-N-(5-fluoropyridin-2-yl)cyclohexanecarboxamide] | < 100
11 | Cc1cnc(NC(=O)c2ccc(CN3C(=O)c4ccc(Cl)cc4NC(=O)[C@H]3Cc3ccccn3)cc2Cl)s1 [Example 4cc, (R)-2-chloro-4-((8-chloro-2,5-dioxo-3-(pyridin-2-ylmethyl)-2,3-dihydro-1H-benzo[e][1,4]diazepin-4(5H)-yl)methyl)-N-(5-methylthiazol-2-yl)benzamide] | < 100
12 | O=C1Nc2cc(Cl)ccc2C(=O)N(Cc2ccc(C(=O)N3CCc4cccnc43)c(Cl)c2)[C@@H]1Cc1ccccn1 [Example 4cd, (R)-8-chloro-4-(3-chloro-4-(2,3-dihydro-1H-pyrrolo[2,3-b]pyridine-1-carbonyl)benzyl)-3-(pyridin-2-ylmethyl)-3,4-dihydro-1H-benzo[e][1,4]diazepine-2,5-dione] | < 100
13 | COc1cnc(NC(=O)[C@H]2CC[C@H](CN3C(=O)c4ccc(Cl)cc4NC(=O)[C@H]3Cc3ccccn3)CC2)cn1 [Example 4ce, (1R,4r)-4-(((R)-8-chloro-2,5-dioxo-3-(pyridin-2-ylmethyl)-2,3-dihydro-1H-benzo[e][1,4]diazepin-4(5H)-yl)methyl)-N-(5-methoxypyrazin-2-yl)cyclohexanecarboxamide] | 100 to 999
14 | Cc1cnc(NC(=O)[C@H]2CC[C@H](CN3C(=O)c4ccc(Cl)cc4NC(=O)[C@H]3Cc3ccccn3)CC2)cn1 [Example 4cf, (1R,4r)-4-(((R)-8-chloro-2,5-dioxo-3-(pyridin-2-ylmethyl)-2,3-dihydro-1H-benzo[e][1,4]diazepin-4(5H)-yl)methyl)-N-(5-methylpyrazin-2-yl)cyclohexanecarboxamide] | < 100
15 | O=C1Nc2cc(Cl)ccc2C(=O)N(C[C@H]2CC[C@H](C(=O)N3CCc4cccnc43)CC2)[C@@H]1Cc1ccccn1 [Example 4cg, (R)-8-chloro-4-(((1r,4R)-4-(2,3-dihydro-1H-pyrrolo[2,3-b]pyridine-1-carbonyl)cyclohexyl)methyl)-3-(pyridin-2-ylmethyl)-3,4-dihydro-1H-benzo[e][1,4]diazepine-2,5-dione] | < 100
16 | O=C1Nc2cc(Cl)ccc2C(=O)N(C[C@H]2CC[C@H](C(=O)N3CCCc4cccnc43)CC2)[C@@H]1Cc1ccccn1 [Example 4ch, (R)-8-chloro-3-(pyridin-2-ylmethyl)-4-(((1r,4R)-4-(1,2,3,4-tetrahydro-1,8-naphthyridine-1-carbonyl)cyclohexyl)methyl)-3,4-dihydro-1H-benzo[e][1,4]diazepine-2,5-dione] | 10000 to 35000
17 | O=C(Nc1ccccn1)c1ccc(CN2C(=O)c3ccc(Cl)cc3NC(=O)[C@H]2Cc2ccccn2)cc1Cl [Example 4cj, (R)-2-chloro-4-((8-chloro-2,5-dioxo-3-(pyridin-2-ylmethyl)-2,3-dihydro-1H-benzo[e][1,4]diazepin-4(5H)-yl)methyl)-N-(pyridin-2-yl)benzamide] | < 100
18 | COc1ccc(NC(=O)c2ccc(CN3C(=O)c4ccc(Cl)cc4NC(=O)[C@H]3Cc3ccccn3)cc2OC)nc1 [Example 4cn, (R)-4-((8-chloro-2,5-dioxo-3-(pyridin-2-ylmethyl)-2,3-dihydro-1H-benzo[e][1,4]diazepin-4(5H)-yl)methyl)-2-methoxy-N-(5-methoxypyridin-2-yl)benzamide] | < 100
19 | Cc1ccc(C[C@@H]2C(=O)Nc3cc(Cl)ccc3C(=O)N2Cc2ccc(C(=O)Nc3ccccn3)cc2)cc1 [Example 4co, (R)-4-((8-chloro-3-(4-methylbenzyl)-2,5-dioxo-2,3-dihydro-1H-benzo[e][1,4]diazepin-4(5H)-yl)methyl)-N-(pyridin-2-yl)benzamide] | 100 to 999
20 | Cn1ccc(NC(=O)c2ccc(CN3C(=O)c4ccc(Cl)cc4NC(=O)[C@H]3Cc3cccnc3)cc2)n1 [Example 4d, (R)-4-((8-chloro-2,5-dioxo-3-(pyridin-3-ylmethyl)-2,3-dihydro-1H-benzo[e][1,4]diazepin-4(5H)-yl)methyl)-N-(1-methyl-1H-pyrazol-3-yl)benzamide] | 100 to 999
21 | Cc1cc(NC(=O)c2ccc(CN3C(=O)c4ccc(Cl)cc4NC(=O)[C@H]3Cc3cccnc3)cc2)no1 [Example 4e, (R)-4-((8-chloro-2,5-dioxo-3-(pyridin-3-ylmethyl)-2,3-dihydro-1H-benzo[e][1,4]diazepin-4(5H)-yl)methyl)-N-(5-methylisoxazol-3-yl)benzamide] | < 100
22 | C[C@H]1C(=O)Nc2cc(Cl)ccc2C(=O)N1Cc1ccc(C(=O)Nc2ccccn2)cc1 [Example 4f, (S)-4-((8-chloro-3-methyl-2,5-dioxo-2,3-dihydro-1H-benzo[e][1,4]diazepin-4(5H)-yl)methyl)-N-(pyridin-2-yl)benzamide] | < 100
23 | O=C(Nc1ccccn1)c1ccc(CN2C(=O)c3ccc(Cl)cc3NC(=O)[C@H]2CCc2ccccc2)cc1 [Example 4g, (R)-4-((8-chloro-2,5-dioxo-3-phenethyl-2,3-dihydro-1H-benzo[e][1,4]diazepin-4(5H)-yl)methyl)-N-(pyridin-2-yl)benzamide] | 1000 to 10000
24 | O=C(Nc1ccccn1)c1ccc(CN2C(=O)c3ccc(Cl)cc3NC(=O)[C@H]2Cc2ccccc2)cc1 [Example 4h, (R)-4-((3-benzyl-8-chloro-2,5-dioxo-2,3-dihydro-1H-benzo[e][1,4]diazepin-4(5H)-yl)methyl)-N-(pyridin-2-yl)benzamide] | < 100
25 | O=C(Nc1ccccn1)c1ccc(CN2C(=O)c3ccc(Cl)cc3NC(=O)[C@H]2Cc2ccc(F)cc2)cc1 [Example 4i, (R)-4-((8-chloro-3-(4-fluorobenzyl)-2,5-dioxo-2,3-dihydro-1H-benzo[e][1,4]diazepin-4(5H)-yl)methyl)-N-(pyridin-2-yl)benzamide] | < 100
26 | O=C(Nc1ccccn1)c1ccc(CN2C(=O)c3ccc(Cl)cc3NC(=O)[C@H]2Cc2ccc(Cl)cc2)cc1 [Example 4j, (R)-4-((8-chloro-3-(4-chlorobenzyl)-2,5-dioxo-2,3-dihydro-1H-benzo[e][1,4]diazepin-4(5H)-yl)methyl)-N-(pyridin-2-yl)benzamide] | 1000 to 10000

Same assay, conditions: read-out: TcdB UDP-Glucose hydrolysis activity (IC50, coded); UDP-Glucose hydrolysis assay, fluorescence polarization

Row | Compound | IC50 [nM]
27 | COc1ccc(NC(=O)C2CCC(CN3C(=O)c4ccc(Cl)cc4NC(=O)[C@H]3Cc3ccccn3)CC2)nc1 (stereo partly drawn) [Example 4bz, (1R,4r)-4-(((R)-8-chloro-2,5-dioxo-3-(pyridin-2-ylmethyl)-2,3-dihydro-1H-benzo[e][1,4]diazepin-4(5H)-yl)methyl)-N-(5-methoxypyridin-2-yl)cyclohexanecarboxamide] | < 100
